Assay results: patent US20070037143A1, “Method for screening for protease modulators” (DIGILAB BioVisioN GmbH, priority 2005, published 2007)
Entries after “also recorded” stand apart in the source; their conditions may differ. Blank lines part the entries; values can stand above or below the molecule they belong to.

Legend:
Format in all cases: in vivo
[1] = biological target: T1, DPP4 (Rattus norvegicus, UniProt P14740); test: DPP4 activity in plasma of rats injected with DPP4 inhibitors (G-P-4 nitroanilide substrate, 405 nm); conditions: Wistar rats, s.c., 0.3-3.2 mg/kg, 1 h after injection; FIG. 2
T1 construct: from tissue; host or cells: Wistar rats dosed in vivo; activity read in tail-vein plasma
T1 sequence (P14740 whole entry): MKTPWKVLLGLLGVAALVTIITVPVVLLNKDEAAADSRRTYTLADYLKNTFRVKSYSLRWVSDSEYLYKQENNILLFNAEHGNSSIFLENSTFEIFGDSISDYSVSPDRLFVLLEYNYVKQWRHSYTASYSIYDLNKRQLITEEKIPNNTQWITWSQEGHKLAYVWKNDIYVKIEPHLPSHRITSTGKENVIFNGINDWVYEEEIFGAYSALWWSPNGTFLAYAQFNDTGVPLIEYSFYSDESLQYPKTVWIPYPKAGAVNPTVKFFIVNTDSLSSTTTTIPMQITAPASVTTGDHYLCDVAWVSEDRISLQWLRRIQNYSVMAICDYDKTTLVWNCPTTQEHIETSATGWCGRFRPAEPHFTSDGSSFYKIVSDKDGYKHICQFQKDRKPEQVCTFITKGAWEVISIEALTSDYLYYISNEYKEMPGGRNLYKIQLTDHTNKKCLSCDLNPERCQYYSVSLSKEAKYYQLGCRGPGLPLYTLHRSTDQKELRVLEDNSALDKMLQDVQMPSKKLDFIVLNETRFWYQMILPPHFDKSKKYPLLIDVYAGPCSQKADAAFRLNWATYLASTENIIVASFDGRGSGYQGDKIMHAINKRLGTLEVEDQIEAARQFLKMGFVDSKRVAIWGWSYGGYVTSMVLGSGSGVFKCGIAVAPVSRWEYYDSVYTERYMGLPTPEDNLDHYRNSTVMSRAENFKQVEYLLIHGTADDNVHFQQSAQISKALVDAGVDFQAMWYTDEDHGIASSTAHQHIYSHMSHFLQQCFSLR
Method: The DPP4 inhibitor AB192 (bis(4-acetamidophenyl)-1-(S)-prolylpyrrolidine-2-(R,S)-phosphonate) (J. Med. Chem., 1999, 42:1041-52) was kindly provided by Ingrid De Meester (University of Antwerp, Campus Drie Eiken, Department of Pharmaceutical Sciences, Universiteitsplein 1, B-2610 Wilrijk-Antwerpen). AB192, an irreversible inhibitor of DPP4, was used at 0.32, 1.00 and 3.2 mg/kg body weight. The control inhibitor (Contr.In.) was used at 0.3, 1.0 and 3.0 mg/kg body weight. Eight week old Wistar rats (315-320 g body weight) received either of the inhibitors (8 animals for each inhibitor concentration of each inhibitor) or were treated with vehicle (50 mM sodium phosphate buffer; pH 7.4) (4 animals). The rats received the inhibitors or vehicle by subcutaneous injection into the fat tissue of the neck using a 27-G needle. […]
Blood samples taken from the tail vein were immediately centrifuged (2000×g; 10 min at room temperature) and plasma stored at −20° C. […] The 96-well plate was read immediately using a Tecan Genios microplate reader (Tecan Deutschland GmbH, Crailsheim, Germany) and measurements were taken at 37° C. over a period of time of 1 h at a wavelength of 405 nm. From the measured values the blank signal (plasma+HEPES buffer) was subtracted and data calculated as Units/litre (U/l). […]

[2] = biological target: T1, DPP4; test: Peptide display (RP chromatography + MALDI-MS) of rat plasma: Spearman correlation of peptide/protein signals with inhibitor concentration or before/after change in DPP4 activity; design: key to Correlation of mass spectrometric signal with concentration of inhibitor AB & Contr.In. A / Correlation of mass spectrometric signal with concentration of inhibitor Contr.In. C: With positive (pos.) correlation regarding the inhibitor concentration is meant that higher concentrations of inhibitor result in higher concentration of a peptide or protein
Method: The DPP4 inhibitor AB192 (bis(4-acetamidophenyl)-1-(S)-prolylpyrrolidine-2-(R,S)-phosphonate) (J. Med. Chem., 1999, 42:1041-52) was kindly provided by Ingrid De Meester (University of Antwerp, Campus Drie Eiken, Department of Pharmaceutical Sciences, Universiteitsplein 1, B-2610 Wilrijk-Antwerpen). AB192, an irreversible inhibitor of DPP4, was used at 0.32, 1.00 and 3.2 mg/kg body weight. The control inhibitor (Contr.In.) was used at 0.3, 1.0 and 3.0 mg/kg body weight. Eight week old Wistar rats (315-320 g body weight) received either of the inhibitors (8 animals for each inhibitor concentration of each inhibitor) or were treated with vehicle (50 mM sodium phosphate buffer; pH 7.4) (4 animals). The rats received the inhibitors or vehicle by subcutaneous injection into the fat tissue of the neck using a 27-G needle. Blood samples (100 μl) for DPP4 activity measurements were drawn from the tail vein before injection and at the end of the experiment 1 h after injection of the DPP4 inhibitors. At this point, the rats were anaesthetised using a mixture of ketamin (9 mg/100 g body weight) and rompun (0.2 mg/100 g body weight). Additionally, rats received a short burst of ether for quick anaesthesia. The thorax was opened immediately and 4 to 6 ml of blood taken from the right ventricle into ethylenediaminetetraacetic acid (EDTA) laminated syringes and transferred into a 15 ml tube filled with EDTA at a final concentration of 2.5 mg/ml.
Rat blood samples were consecutively centrifuged at room temperature for 10 min at 2000×g and for 15 min at 2500×g. The resulting platelet poor plasma was stored at −80° C. until analysis. For reduction of the protein load of the plasma, the plasma sample was diluted 1:4 with 8 M guanidinium chloride solution at room temperature and for quality control purposes a peptide standard mix was added resulting in a final concentration of 300 to 800 pM of each individual standard peptide added. The peptides added were: substance P, somatostatin-14, neurotensin, renin substrate (porcine), adrenocorticotropic hormone (ACTH)(1-17), big endothelin-1(19-38), ACTH(18-39), beta-Endorphin(6-31), adrenocorticotropic hormone(1-24), calcitonin (human), insulin B chain oxide (bovine), ACTH(7-38), pro34-neuropeptide Y (porcine) and growth hormone-releasing factor (GRF)(1-44). All Peptides or proteins represent the human sequence, if not indicated to the contrary and the numbers in brackets following some of the peptides indicate the amino acid positions of the complete sequence including said peptide. Prior to use, the ultrafiltration devices are rinsed with distilled water. Ultrafiltration was done using Amicon Ultra filter devices with a molecular weight cut-off of 50 kDa (Millipore, Bedford, USA), which were centrifuged according to the manufacturer's instructions at 4000×g for 60 min at room temperature in a swinging bucket rotor. Finally, the pH of the filtrate was adjusted to pH 2 to 3 using concentrated HCl (30% v/v). If the sample (filtrate) was not directly further processed, it was stored at −80° C. A 750 μl-equivalent of plasma was used per chromatographic run.
The separation of peptides and/or proteins was done using a Source 5RPC, 4,6×150 mm reverse phase chromatography column (Amersham Biosciences Europe GmbH, Freiburg, Germany). Buffer A was 0.06% (v/v) (volume per volume) trifluoroacetic acid (TFA) in distilled water and buffer B was 0.05% (v/v) TFA, 80% (v/v) acetonitrile in distilled water. The chromatography took place at 33° C. using a HP 1100 HPLC with a micro flow cell both supplied by Agilent Technologies, Böblingen, Germany. The samples were diluted to 5.5 ml using a 0.1% (v/v) stock solution of trifluoroacetic acid. Prior to chromatography, the samples were centrifuged at 4° C. and 15 000×g for 10 minutes and finally 5 ml of sample were loaded onto the chromatography column representing an equivalent of 750 μl plasma. […]

[3] = biological target: T1, DPP4; test: Panels of pairs of peptides/proteins (linear model): correlation to inhibitor concentration or to decreased DPP4 activity; conditions: for Correlation coefficient of Panel 1 + 2: panel of both peptides/proteins; for Correlation coefficient of Pep./Prot. 1: single peptide/protein 1 of the panel; for Correlation coefficient of Pep./Prot. 2: single peptide/protein 2 of the panel
Method: In addition, networks of peptides and/or proteins were calculated. This allows, for example, to identify panels of peptides and/or proteins, which enable to better reflect the biological impact of the inhibitors (FIG. 5/Table 2). Combining two peptides and/or proteins in these panels increased the reliability of the prediction (e.g. concentration of inhibitor, “before/after change in DPP4 activity”) possible by evaluating these peptide/protein panels. These panels were determined by comprehensively combining peptide and/or protein signals to pairs of peptide and/or protein signals. In a “linear model”, the signal intensities of the peptide and/or protein pairs were treated as independent variables, and the endpoint DPP4 concentration (or change in DPP4 activity) was treated as the dependent variable. The “linear model” was then calculated (e.g. with R-package, version 2.00 (R Foundation for Statistical Computing, Vienna, Austria) or S-plus, version 6.0 (Insightful AG, Reinach, Switzerland), etc.).
In addition to panels of peptides and/or proteins, surrogate networks of peptides and/or proteins can also be predicted, which peptides and/or proteins can replace each other, i.e. the peptides and/or proteins are surrogates of each other. Using this method it is, for example, possible to identify peptides and/or proteins which have the same diagnostic value. […] In addition, it is possible to choose those peptides and/or proteins of a surrogate network, which can be measured with the least effort. Both strategies can be combined to save time, resources, valuable or limited patient samples, etc. For determining these surrogate networks and peptide and/or protein panels, methods such as the methods described in PCT/EP 2005/000090 can be used.

[4] = with DPP4 activity in presence of AB (AB192 inhibitor)
[5] = with concentration of AB and Contr.In.
[6] = with concentration of AB (AB192 inhibitor)

Molecule: CC(=O)Nc1ccc(OP(=O)(Oc2ccc(NC(C)=O)cc2)C2CCCN2C(=O)[C@@H]2CCCN2)cc1 (stereo partly drawn) [AB192, bis(4-acetamidophenyl)-1-(S)-prolylpyrrolidine-2-(R,S)-phosphonate]
- DPP4 activity in plasma [1]: inhibited the activity of DPP4 in vivo in rats in a dose dependent manner; also recorded: inhibit DPP4 activity in vivo in a dose-dependent manner

- Correlation of mass spectrometric signal with DPP4 inhibition by Contr.In. F ([2]; Spearman, before/after change in DPP4 activity with control inhibitor, but not AB192, n=31, |r|>0.61, rat plasma): neg.
- correlation of mass spectrometric signal with the DPP4 activity measured in the same samples ([2]; plasma of rats treated with control inhibitor (Contr.In.), FIG. 3A, 4B): negatively
- Correlation coefficient of Panel 1 + 2 [3, 4]: 0.54
- Correlation coefficient of Pep./Prot. 1 [3, 4]: −0.38
- Correlation coefficient of Pep./Prot. 2 [3, 4]: −0.4
Molecule: GAPGQNGEPGAKGERGAPGEKGEGGPPG [Peptide/Protein No. 45]

- Correlation of mass spectrometric signal with concentration of inhibitor AB & Contr.In. A ([2]; Spearman, correlates with concentration of AB192 and of control inhibitor, n=49, |r|>0.5, rat plasma 1 h after s.c. injection): pos.
- correlation of mass spectrometric signal with the amount of the DPP4 inhibitor AB192 or the control inhibitor given to the rat ([2]; rat plasma, FIG. 3B): positively
- Correlation coefficient of Panel 1 + 2 [3, 5]: 0.59
- Correlation coefficient of Pep./Prot. 1 [3, 5]: −0.52
- Correlation coefficient of Pep./Prot. 2 [3, 5]: −0.52
Molecule: LPGPPGERGGPGSRGFPGADGVAGP [Peptide/Protein No. 2]

- Correlation of mass spectrometric signal with concentration of inhibitor Contr.In. C ([2]; Spearman, concentration of control inhibitor, but not of AB192, n=27, |r|>0.61, rat plasma): pos.
- correlation of mass spectrometric signal with the amount of control inhibitor (Contr.In.) given to the rat ([2]; rat plasma, FIG. 4A): positively
- Correlation coefficient of Panel 1 + 2 [3, 6]: 0.66
- Correlation coefficient of Pep./Prot. 1 [3, 6]: −0.44
- Correlation coefficient of Pep./Prot. 2 [3, 6]: 0.48
Molecule: PPGPPGPPGPPGPPS [Peptide/Protein No. 3]
